Test results: patent US10927100B2, “Degradable imidazolium oligomer and polymer for antimicrobial applications” (AGENCY FOR SCIENCE, TECHNOLOGY AND RESEARCH, priority 2017, dated 2021)
Values after ≈ are worked out from the molar mass of the structure shown. Where two headings read alike, the source gives them in different places.

How the values were obtained:
rat red blood cells = assay: Haemolysis; type: cell-based
Description: Fresh rat red blood cells (RBCs) were diluted with PBS buffer to give an RBC stock suspension (4 vol % blood cells). A 100 μL aliquot of RBC suspension was added into a 96-well plate containing 100 μL oligomer solutions of various concentrations (ranging from 4 mg mL^−1 to 2 μg mL^−1 in serial two-fold dilutions in PBS). After 1 hour incubation at 37° C., the contents of each well were pipetted into a micro-centrifuge tube and centrifuged at 2000 rpm for 5 minutes. Aliquots (100 μL) of the supernatant were transferred to a new 96-well plate. Haemolytic activity was determined as a function of haemoglobin release by measuring OD576 of 100 μL of the supernatant using a microplate reader (TECAN). A control solution that contained only PBS was used as a reference for 0% haemolysis. Absorbance of red blood cells lysed with 0.5% Triton-X was taken as 100% haemolysis. The data were expressed as mean and S.D. of four replicates, and the tests were repeated two times.

[1] = tested on: Staphylococcus aureus (ATCC 6538, Gram-positive); assay: Minimum inhibitory concentration, microdilution assay; type: cell-based
Description: (§1) Staphylococcus aureus (ATCC 6538, Gram-positive), Escherichia coli (ATCC 8739, Gram-negative), Pseudomonas aeruginosa (Gram-negative), and Candida albicans (ATCC 10231, fungus) were used as representative microorganisms to challenge the antimicrobial functions of the imidazolium salts. All bacteria and fungus were stored frozen at −80° C., and were grown overnight at 37° C. in Mueller Hinton Broth (MHB) prior to experiments. Fungus was grown overnight at 22° C. in Yeast Mold (YM) broth. […] The plates were incubated at 37° C. for 24 hours with constant shaking speed at 300 rpm. […] PBS solution containing microbial cells alone were used as negative controls. The assay was performed in four replicates and the experiments were repeated at least two times.

[2] = tested on: Escherichia coli (ATCC 8739, Gram-negative); assay: as above; type: cell-based; conditions: for MIC: Escherichia coli, ATCC8739
Description: as §1

[3] = tested on: Pseudomonas aeruginosa (Gram-negative); assay: as above; type: cell-based; conditions: for MIC: Pseudomonas aeruginosa
Description: as §1

[4] = tested on: Candida albicans (ATCC 10231, fungus); assay: as above; type: cell-based; conditions: for MIC: Candida albicans, ATCC10231
Description: as §1

S. aureus [5] = assay: Resistance studies, serial passage at sub-MIC; type: cell-based, Staphylococcus aureus; conditions: for resistance to polymers IBN-CP1 or IBN-CP3 after growth with degradation product: media containing 2, 8, 16 and 100 μg/ml over one month
Description: The method was adapted from that of Yang and co-authors with modification [K. Fukushima, S. Liu, H. Wu, A. C. Engler, D. J. Coady, H. Maune, J. Pitera, A. Nelson, N. Wiradharma, S. Venkataraman, Y. Huang, W. Fan, J. Y. Ying, Y. Y. Yang, J. L. Hedrick. Nature Comm, 2013, 4:2861]. Drug resistance was induced by treating S. aureus repeatedly with degradable oligomers. First MICs of the tested oligomers were determined against S. aureus using the broth microdilution method. Then serial passaging was initiated by transferring bacterial suspension grown at the sub-MIC of the oligomers (½ of MIC at that passage) and was subjected to another MIC assay. After 24 hours incubation period, cells grown at the sub-MIC of the test compounds/antibiotics were once again transferred and assayed for MIC. The MIC against S. aureus was tested for 16 passages.
Drug-resistant behaviour of S. aureus was evaluated by recording the changes in the MIC normalized to that of the first passage. Conventional antibiotics vancomycin was used as the control.

[6] = Oligomer and polymer degradation by 1H NMR spectroscopy; type: physicochemical; conditions: pH 6-8 buffered solutions, ambient conditions
Description: Sorenson's phosphate buffer (pH, 6.0, 7.0, 8.0), tris buffer (pH 6.0, 7.0, 8.0) and sodium citrate-citric acid buffer (pH 3.0, 4.0, 5.0) were prepared in deionized water at concentrations of 100 mM, as well as 10 mM for tris buffer solution. […] A 4 mg sample of imidazolium oligomer or polymer was dissolved in deuterated buffer solution with care taken to ensure complete solution of the compounds. […] Degradation of the carbonate and ester-linked compounds was observed by disappearance of the signal of the methylene protons adjacent to the carbonate or ester functional group, and/or appearance of the signal of the methylene protons adjacent to the hydroxyl group in the degradation product.

P. aeruginosa = assay: Agar well diffusion assay; type: cell-based, Pseudomonas aeruginosa
Description: (§2) The degradable oligomers were dissolved in ethanol and glycerol at 0.5% w/v concentration. Agar plates were inoculated with bacteria and 6 mm wells were cut, into which 20 μL of solution was added. Plates were inoculated at 37° C. for 24 hours and zone of inhibitions measured using a pair of vernier calipers.

S. aureus [7] = assay: Agar well diffusion assay; type: cell-based, Staphylococcus aureus
Description: as §2

E. coli = assay: Agar well diffusion assay; type: cell-based, Escherichia coli
Description: as §2

[8] = Critical gelation concentration in alcohols; type: physicochemical
Description: Gels were prepared by weighing the imidazolium oligomers directly into 4 mL glass vials and subsequently adding a known weight or volume of the solvent. The vials containing both the imidazolium and the solvent were either heated or sonicated to aid the dissolution process. The vials were left standing over night at ambient conditions. The gel state was evaluated by the stable-to-inversion-of-a-test-tube method. The critical gelation concentration (CGC) is defined as the lowest concentration of the gelator which leads to a stable gel.

E. coli and S. aureus = assay: SEM observation of bacteria treated with oligomers; type: cell-based; conditions: 4MIC, exposure two minutes
Description: Bacterial cells (3×10^8 CFU/mL) grown in MHB without or with the oligomers at 4MIC for 2 minutes were collected and centrifuged at 5000 rpm for 5 minutes. The precipitates were washed twice with PBS buffer. Then the samples were fixed with glutaraldehyde (2.5%) for 2 hours followed by washing with DI water. Dehydration of the samples was performed using a series of ethanol/water solution (35%, 50%, 75%, 90%, 95% and 100%). The dehydrated samples were mounted on copper tape. After drying for 2 days, the samples were further coated with platinum for imaging with JEOL JSM-7400F (Japan) field emission scanning electron microscope operated at an accelerating voltage of 5 keV.

[9] = rat red blood cells, 1 hour, 37° C.
[10] = Staphylococcus aureus, ATCC6538; read-out: MIC S. aureus
[11] = 0.5% w/v solution in glycerol, compared with ethanol solution

Row | Compound | MIC S. aureus [1] [µg/mL] | MIC E. coli [2] [µg/mL] | MIC P. aeruginosa [3] [µg/mL] | MIC C. albicans [4] [µg/mL] | HC10 (rat red blood cells; [9]) [µg/mL] | also measured
1 | CCCCCCCCn1cc[n+](Cc2ccc(Cn3cc[n+](Cc4ccc(C[n+]5ccn(Cc6ccc(CN)cc6)c5)cc4)c3)cc2)c1.[Br-].[Br-].[Br-] [F1-CH2NH2] | 125 | 16 | 250 | 62 | 1000 | 
2 | CN[C@H](CC(C)C)C(=O)N[C@H]1C(=O)N[C@@H](CC(N)=O)C(=O)N[C@H]2C(=O)N[C@H]3C(=O)N[C@H](C(=O)N[C@H](C(=O)O)c4cc(O)cc(O)c4-c4cc3ccc4O)[C@H](O)c3ccc(c(Cl)c3)Oc3cc2cc(c3O[C@@H]2O[C@H](CO)[C@@H](O)[C@H](O)[C@H]2O[C@H]2C[C@](C)(N)[C@H](O)[C@H](C)O2)Oc2ccc(cc2Cl)[C@H]1O [Vancomycin, reference compound] |  |  |  |  | >2000 | change of MIC value over serial passages (S. aureus [5]; sub-MIC levels, 16 passages): quadrupled; passage at which MIC increase was observed (S. aureus [5]; sub-MIC levels, 16 passages): 5 passage; MIC ([1]; Staphylococcus aureus, ATCC6538, read-out: MIC S. aureus): 2 µg/mL (≈ 1.38 µM)
3 | OCc1ccc(Cn2cc[n+](Cc3ccccc3Cn3cc[n+](Cc4ccc(CO)cc4)c3)c2)cc1 [F-diol3] |  |  |  |  | >2000 | resistance to polymers IBN-CP1 or IBN-CP3 after growth with degradation product (S. aureus [5]): did not develop resistance; MIC [1, 10]: 500 µg/mL; MIC ([2]; read-out: MIC E. coli): > 2000 µg/mL; MIC ([3]; read-out: MIC P. aeruginosa): > 4000 µg/mL; MIC ([4]; read-out: MIC C. albicans): > 2000 µg/mL
4 | OCc1ccc(Cn2cc[n+](C/C=C/Cn3cc[n+](Cc4ccc(CO)cc4)c3)c2)cc1 [F-diol1] |  |  |  |  | >2000 | resistance to polymers IBN-CP1 or IBN-CP3 after growth with degradation product (S. aureus [5]): did not develop resistance; HC10 (rat red blood cells): >2000 ppm; MIC [1, 10]: 125 µg/mL; MIC ([1]; Staphylococcus aureus, ATCC6538; read-out: MIC SA): 12 µg/mL; MIC ([2]; read-out: MIC E. coli): > 2000 µg/mL; MIC ([2]; read-out: MIC EC): > 2000 µg/mL; MIC ([3]; read-out: MIC P. aeruginosa): 2000 µg/mL; MIC ([3]; read-out: MIC PA): 2000 µg/mL; MIC ([4]; read-out: MIC C. albicans): > 2000 µg/mL; MIC ([4]; read-out: MIC CA): > 2000 µg/mL
5 | CCn1cc(C(=O)O)c(=O)c2cc(F)c(N3CCNCC3)cc21 [norfloxacin, reference compound] |  |  |  |  |  | MIC value relative to its original value (S. aureus [5]; by the 15th passage): over 120 times
6 | CCCCCCCCn1cc[n+](Cc2ccc(Cn3cc[n+](Cc4ccc(C[n+]5ccn(Cc6ccc(OCn7cc[n+](Cc8ccc(Cn9cc[n+](Cc%10ccc(Cn%11cc[n+](CCCCCCCC)c%11)cc%10)c9)cc8)c7)cc6)c5)cc4)c3)cc2)c1.[Br-].[Br-].[Br-].[Br-].[Br-].[Br-] [IBN-HC8] | 16 | 8 | 125 | 125 | >2000 | degradation in buffered solutions [6]: not significantly degraded; passage at which MIC increase was observed (S. aureus [5]; sub-MIC levels, 16 passages): 8 passage; zone of inhibition (P. aeruginosa; 0.5% w/v in ethanol): comparable zones of inhibition compared to ethanol; zone of inhibition (P. aeruginosa; [11]): comparable efficacy; zone of inhibition (S. aureus [7]; 0.5% w/v in ethanol): larger zones of inhibition than ethanol on its own; zone of inhibition (S. aureus [7]; [11]): comparable efficacy; zone of inhibition (E. coli; 0.5% w/v in ethanol): larger zones of inhibition than ethanol on its own; zone of inhibition (E. coli; [11]): comparable efficacy; Critical gelation concentration ([8]; ethanol): 1.5 wt %; Critical gelation concentration ([8]; n-butanol): 1.0 wt %; Critical gelation concentration ([8]; n-propanol): 0.5 wt %; bacterial cell walls in SEM images (E. coli and S. aureus): disrupted and subsequently dissolved

Second part, led by results:

Row | MIC S. aureus [1] [µg/mL] | MIC E. coli [2] [µg/mL] | MIC P. aeruginosa [3] [µg/mL] | MIC C. albicans [4] [µg/mL] | Compound | HC10 (rat red blood cells; [9]) [µg/mL] | also measured
7 | 250 | 1000 | >2000 | >2000 | OCc1ccccc1Cn1cc[n+](C/C=C/C[n+]2ccn(Cc3ccccc3CO)c2)c1.[Br-].[Br-] [F-diol4] |  | 
8 | 62 | 31 | >2000 | 500 | CCCCCCCCn1cc[n+](Cc2ccc(Cn3cc[n+](Cc4ccc(C[n+]5ccn(Cc6ccc(C(=O)O)cc6)c5)cc4)c3)cc2)c1.[Br-].[Br-].[Br-] [F1-COOH] |  | 
9 | >2000 | 2000 | 2000 | 250 | CCCCCCCCn1cc[n+](Cc2ccc(Cn3cc[n+](Cc4ccc(C[n+]5ccn(Cc6ccc(CO)cc6)c5)cc4)c3)cc2)c1.[Br-].[Br-].[Br-] [F1-CH2OH] | >2000 | hemolysis at highest concentration (rat red blood cells; 2000 μg/ml): did not induce hemolysis
10 | 125 | 250 | >2000 | >2000 | OCc1ccccc1Cn1cc[n+](Cc2ccccc2C[n+]2ccn(Cc3ccccc3CO)c2)c1.[Br-].[Br-] [F-diol5] | >2000 | 
11 | 2000 | >2000 | >2000 | >2000 | OCc1ccc(Cn2cc[n+](Cc3ccc(C[n+]4ccn(Cc5ccc(CO)cc5)c4)cc3)c2)cc1.[Br-].[Br-] [F-diol2] | >2000 | 
